In brackets after ≈: the same amount, converted by molar mass. Several values for one entry are separate records, joined by “and”; a condition that tells them apart may be missing. Equal values may be shown once. Values belong to the molecule of their own block, whether it stands above or below them.
Key:
Assay in all cases: ≥ marks a high value that may be exact or a test limit, other limits are often not marked, values filed in µg/mL are converted to µM
Bacillus cereus AS1.126 = system: Bacillus cereus AS1.126
[1] = system: Enterococcus faecalis CGMCC 1.595
[2] = system: Enterococcus faecium CGMCC 1.2334
Escherichia coli AS1.349 = system: Escherichia coli AS1.349
[3] = system: Lactococcus lactis AS1.1690
[4] = system: Pseudomonas aeruginosa CGMCC 1.860
[5] = system: Staphylococcus aureus AS1.72
[6] = system: Mycobacterium tuberculosis H37Rv
[7] = system: Candida albicans ATCC 24433
Candida albicans = system: Candida albicans
[8] = system: Staphylococcus aureus ATCC 25923
Staphylococcus aureus MR = system: Staphylococcus aureus MR
[9] = system: Escherichia coli ATCC 25922
[10] = system: Escherichia coli ATCC 8739
Escherichia coli = system: Escherichia coli
Klebsiella pneumoniae = system: Klebsiella pneumoniae
[11] = system: Pseudomonas aeruginosa ATCC 27853
[12] = system: Pseudomonas aeruginosa PA14
[13] = system: Pseudomonas aeruginosa PAO1
Staphylococcus aureus = system: Staphylococcus aureus
[14] = system: Acinetobacter baumannii CCARM 12035
[15] = system: Acinetobacter baumannii KCTC 2508
[16] = system: Bacillus subtilis KCTC 3068
[17] = system: Escherichia coli CCARM 1229
[18] = system: Escherichia coli KCTC 1682
[19] = system: Pseudomonas aeruginosa CCARM 2002
[20] = system: Pseudomonas aeruginosa KCTC 2004
[21] = system: Salmonella typhimurium CCARM 8007
[22] = system: Salmonella typhimurium KCTC 1926
[23] = system: Staphylococcus aureus CCARM 3126
[24] = system: Staphylococcus aureus KCTC 1621
[25] = system: Staphylococcus epidermidis KCTC 1917
[26] = system: Cronobacter sakazakii DPC 6440
[27] = system: Listeria monocytogenes LO28
[28] = system: Staphylococcus epidermidis ATCC 12228
[29] = system: Candida parapsilosis ATCC 22019

SMILES: CC(C)[C@H](NC(=O)[C@H](CCCCN)NC(=O)[C@@H](N)CO)C(=O)N[C@@H](Cc1c[nH]c2ccccc12)C(=O)N[C@@H](CCCN=C(N)N)C(=O)N[C@@H](Cc1cnc[nH]1)C(=O)N[C@@H](Cc1c[nH]c2ccccc12)C(=O)O [SKVWRHW]
- MIC (Bacillus cereus AS1.126): ≥ 100 µM
- MIC [1]: ≥ 100 µM
- MIC [2]: ≥ 100 µM
- MIC (Escherichia coli AS1.349): ≥ 100 µM
- MIC [3]: ≥ 100 µM
- MIC [4]: ≥ 100 µM
- MIC [5]: ≥ 100 µM

SMILES: CC[C@H](C)[C@@H]1NC(=O)[C@H](CCC(N)=O)NC(=O)[C@H](CCC(=O)O)NC(=O)[C@H](CCC(=O)O)NC(=O)[C@H](CCCCN)NC(=O)CNC(=O)[C@H](CC(C)C)NC(=O)[C@@H]2CSSC[C@@H](C(=O)N[C@@H](CCCN=C(N)N)C(=O)N[C@@H](CCCCN)C(=O)N[C@@H](CCCCN)C(=O)N[C@@H](CCCCN)C(=O)O)NC(=O)[C@@H]3CSSC[C@H](NC(=O)[C@H](Cc4ccccc4)NC(=O)[C@H](Cc4ccccc4)NC(=O)[C@H](CCCCN)NC(=O)[C@H](CCCN=C(N)N)NC(=O)[C@H](CC(C)C)NC(=O)[C@@H](NC(=O)[C@H](CCCCN)NC(=O)[C@@H]4CCCN4C(=O)[C@H](CC(C)C)NC(=O)[C@@H](N)Cc4ccccc4)[C@@H](C)O)C(=O)N[C@@H](CCCN=C(N)N)C(=O)N[C@@H]([C@@H](C)CC)C(=O)N[C@@H](CCCN=C(N)N)C(=O)NCC(=O)NCC(=O)N[C@@H](CCCN=C(N)N)C(=O)N[C@@H](CSSC[C@H](NC(=O)[C@H](CCCN=C(N)N)NC(=O)CNC1=O)C(=O)N[C@@H](CO)C(=O)N[C@@H](CC(N)=O)C(=O)N[C@@H](CO)C(=O)NCC(=O)N[C@@H](CCCN=C(N)N)C(=O)N[C@@H](CCCCN)C(=O)N3)C(=O)N[C@@H](C)C(=O)N[C@@H](C(C)C)C(=O)N[C@@H](CC(C)C)C(=O)N[C@@H](CC(N)=O)C(=O)N2 [FLPKTLRKFFCRIRGGRCAVLNCLGKEEQIGRCSNSGRKCCRKKK]
- MIC [7]: 2.41 µM (≈ 12.5 µg/mL)
- MIC (Candida albicans): 2.41 µM (≈ 12.5 µg/mL)
- MIC [8]: 0.385 µM (≈ 2 µg/mL)
- MIC (Staphylococcus aureus MR): 4.82 µM (≈ 25 µg/mL)

SMILES: CC[C@H](C)[C@H](NC(=O)[C@@H](NC(=O)[C@H](CCCCN)NC(=O)[C@@H](NC(=O)[C@H](CCCCN)NC(=O)[C@@H]1CCCN1C(=O)[C@H](CCC(N)=O)NC(=O)[C@@H](NC(=O)[C@@H](N)Cc1c[nH]c2ccccc12)[C@@H](C)CC)[C@@H](C)O)C(C)C)C(=O)N[C@@H](C)C(=O)N[C@@H](Cc1ccc(O)cc1)C(=O)N[C@H](C(=O)N[C@@H](CCCN=C(N)N)C(=O)N[C@@H](Cc1ccc(O)cc1)C(=O)N[C@@H](CC(C)C)C(=O)O)C(C)C [WIQPKTKVIAYVRYL]
- MIC [26]: ≥ 39.1 µM
- MIC [27]: 2.44 µM (≈ 4.58 µg/mL)

SMILES: CC[C@H](C)[C@H](NC(=O)[C@@H](N)Cc1c[nH]c2ccccc12)C(=O)N[C@@H](CCC(N)=O)C(=O)N1CCC[C@H]1C(=O)N[C@@H](CCCCN)C(=O)N[C@H](C(=O)N[C@@H](CCCCN)C(=O)N[C@H](C(=O)N[C@H](C(=O)N1CCC[C@H]1C(=O)N[C@@H](Cc1ccc(O)cc1)C(=O)N[C@H](C(=O)N[C@@H](C)C(=O)N[C@@H](Cc1ccc(O)cc1)C(=O)N[C@@H](CC(C)C)C(=O)O)C(C)C)[C@@H](C)CC)C(C)C)[C@@H](C)O [WIQPKTKVIPYVAYL]
- MIC [26]: ≥ 625 µM
- MIC [27]: ≥ 156 µM

The next lines start with the values.

- MIC [6]: ≥ 68.7 µM
SMILES: CC[C@H](C)[C@H](NC(=O)[C@H](Cc1c[nH]c2ccccc12)NC(=O)[C@H](CCCN=C(N)N)NC(=O)[C@H](CCCCN)NC(=O)[C@H](C)NC(=O)[C@H](CC(C)C)NC(=O)[C@H](CCCN=C(N)N)NC(=O)[C@H](CC(=O)O)NC(=O)[C@@H](NC(=O)[C@H](CC(N)=O)NC(=O)[C@H](CCC(=O)O)NC(=O)[C@H](CCC(=O)O)NC(=O)[C@H](CO)NC(=O)[C@@H](NC(=O)[C@H](CC(N)=O)NC(=O)[C@H](CCCN=C(N)N)NC(=O)[C@H](C)N)C(C)C)C(C)C)C(=O)N[C@@H](CCCCN)C(=O)O [ARNVSEENVDRLAKRWIK]

- MIC [9]: 8 µM (≈ 18.4 µg/mL)
- MIC [10]: 8 µM and 6.97 µM
- MIC (Escherichia coli): 8 µM (≈ 18.4 µg/mL)
- MIC (Klebsiella pneumoniae): 16 µM (≈ 36.8 µg/mL)
- MIC [11]: 16 µM (≈ 36.8 µg/mL)
- MIC [12]: 8 µM (≈ 18.4 µg/mL)
- MIC [13]: 8 µM (≈ 18.4 µg/mL)
- MIC [8]: 64 µM and 55.7 µM
- MIC (Staphylococcus aureus): > 64 µM
SMILES: CC[C@H](C)[C@H](NC(=O)[C@H](CCCCN)NC(=O)[C@H](CC(C)C)NC(=O)[C@H](CCCN=C(N)N)NC(=O)[C@H](CC(C)C)NC(=O)[C@H](CCCCN)NC(=O)[C@H](CCCCN)NC(=O)[C@H](CC(C)C)NC(=O)[C@H](CC(C)C)NC(=O)[C@H](CCCCN)NC(=O)[C@H](CCCCN)NC(=O)[C@H](CC(N)=O)NC(=O)[C@H](CCCN=C(N)N)NC(=O)[C@H](C)NC(=O)[C@H](CCSC)NC(=O)[C@@H]1CCCN1)C(=O)N[C@@H](C)C(=O)N[C@@H](Cc1ccccc1)C(=O)N[C@@H](CCCCN)C(=O)O [PMARNKKLLKKLRLKIAFK]

- MIC [14]: 8 µM (≈ 12.2 µg/mL)
- MIC [15]: 8 µM (≈ 12.2 µg/mL)
- MIC [16]: 16 µM (≈ 24.5 µg/mL)
- MIC [17]: 16 µM (≈ 24.5 µg/mL)
- MIC [18]: 8 µM (≈ 12.2 µg/mL)
- MIC [19]: 16 µM (≈ 24.5 µg/mL)
- MIC [20]: 8 µM (≈ 12.2 µg/mL)
- MIC [21]: 16 µM (≈ 24.5 µg/mL)
- MIC [22]: ≥ 32 µM
- MIC [23]: 16 µM (≈ 24.5 µg/mL)
- MIC [24]: 8 µM (≈ 12.2 µg/mL)
- MIC [25]: 16 µM (≈ 24.5 µg/mL)
SMILES: CC[C@H](C)[C@H](NC(=O)[C@H](CCCCN)NC(=O)[C@H](Cc1c[nH]c2ccccc12)NC(=O)[C@@H](N)CCCN=C(N)N)C(=O)N[C@@H](Cc1ccccc1)C(=O)N[C@@H](CCCCN)C(=O)N[C@@H](CCCCN)C(=O)N[C@H](C(=O)N[C@H](C(=O)N[C@@H](CCCCN)C(=O)N[C@@H](CCCCN)C(=O)N[C@@H](C)C(N)=O)C(C)C)C(C)C [RWKIFKKVVKKA]

- MIC [7]: ≥ 100 µM
- MIC [9]: > 100 µM
- MIC [28]: > 100 µM
SMILES: CC[C@H](C)[C@H](NC(=O)CNC(=O)[C@@H](NC(=O)[C@H](C)NC(=O)[C@@H](NC(=O)[C@H](CCCCN)NC(=O)[C@@H]1CCCN1C(=O)[C@@H](NC(=O)[C@H](CCSC)NC(=O)[C@H](CO)NC(=O)[C@H](Cc1ccccc1)NC(=O)[C@@H](N)Cc1ccccc1)[C@@H](C)CC)[C@@H](C)CC)[C@@H](C)O)C(=O)N[C@@H](C)C(=O)N[C@@H](CO)C(=O)N[C@@H](CC(C)C)C(=O)N[C@H](C(=O)N[C@@H](CCCCN)C(=O)N[C@@H](CC(N)=O)C(=O)N[C@@H](CC(C)C)C(=O)O)C(C)C [FFSMIPKIATGIASLVKNL]

- MIC [7]: ≥ 269 µM
- MIC [29]: ≥ 269 µM
SMILES: CC[C@H](C)[C@H](NC(=O)[C@H](CC(C)C)NC(=O)[C@H](CCC(=O)O)NC(=O)[C@H](CO)NC(=O)[C@H](CCCN=C(N)N)NC(=O)[C@@H](N)CO)C(=O)N[C@H](C(=O)N[C@@H](Cc1cnc[nH]1)C(=O)N[C@@H](CCC(N)=O)C(=O)N[C@@H](CCCN=C(N)N)C(=O)N[C@@H](CC(C)C)C(=O)N[C@@H](Cc1ccccc1)C(N)=O)C(C)C [SRSELIVHQRLF]
